Measured values published in patent US10947213B1 (Merck Patent GmbH, priority 2015, dated 2021).

These compounds were tested against T1, TLR7/NFKb HEK cells (Homo sapiens, UniProt Q9NYK1) (assay: HEK Cell Assay (TLR7/NFKb reporter, Steady-Glo luciferase readout)). Conditions: 30 min compound preincubation, then R*48 agonist for 5 hours, read-out: Potency.
T1 construct: expressed in transfected cells; host or cells: HEK cells (TLR7/NFKb reporter line)
T1 sequence (Q9NYK1 27-1049): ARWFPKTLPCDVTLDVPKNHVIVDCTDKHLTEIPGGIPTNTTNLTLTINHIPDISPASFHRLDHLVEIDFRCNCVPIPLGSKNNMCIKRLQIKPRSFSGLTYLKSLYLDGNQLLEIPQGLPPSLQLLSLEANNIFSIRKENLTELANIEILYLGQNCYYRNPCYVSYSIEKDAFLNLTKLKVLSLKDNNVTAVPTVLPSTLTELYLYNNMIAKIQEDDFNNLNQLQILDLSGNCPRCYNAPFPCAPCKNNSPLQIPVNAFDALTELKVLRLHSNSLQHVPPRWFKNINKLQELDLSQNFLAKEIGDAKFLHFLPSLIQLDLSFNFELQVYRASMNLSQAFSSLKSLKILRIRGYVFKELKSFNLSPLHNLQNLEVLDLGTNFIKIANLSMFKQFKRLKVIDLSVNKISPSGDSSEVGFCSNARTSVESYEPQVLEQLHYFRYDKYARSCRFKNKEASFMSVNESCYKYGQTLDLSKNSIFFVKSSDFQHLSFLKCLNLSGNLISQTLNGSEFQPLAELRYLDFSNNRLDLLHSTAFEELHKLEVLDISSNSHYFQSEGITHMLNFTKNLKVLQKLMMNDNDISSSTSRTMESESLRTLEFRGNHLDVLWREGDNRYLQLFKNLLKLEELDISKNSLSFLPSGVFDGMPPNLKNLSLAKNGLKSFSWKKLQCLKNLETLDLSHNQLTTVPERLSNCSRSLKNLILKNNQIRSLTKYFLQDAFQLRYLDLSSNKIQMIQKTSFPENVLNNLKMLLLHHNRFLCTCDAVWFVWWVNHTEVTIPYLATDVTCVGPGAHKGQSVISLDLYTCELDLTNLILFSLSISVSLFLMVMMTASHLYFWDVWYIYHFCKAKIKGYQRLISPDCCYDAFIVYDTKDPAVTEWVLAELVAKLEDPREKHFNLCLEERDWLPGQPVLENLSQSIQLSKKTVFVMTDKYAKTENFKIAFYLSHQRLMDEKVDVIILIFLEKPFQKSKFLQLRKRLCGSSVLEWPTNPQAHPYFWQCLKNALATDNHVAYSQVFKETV
Assay type: cell-based
Description: Example 142: HEK Cell Assay
Into 384 CulturePlates (Corning 3707) was placed 5000 c/w of TLR7/NFKb HEK cells in 30 uL DMEM without Phenil red (gibco #31053) and 10% i.a. FCS and 2 mM L-ZGLutamin. The cells were incubated for 24 h at 37° C., 10% carbon dioxide and 90% relative humidity. 3 uL of controls, standards, and compounds were dispensed into wells, incubated for 30 min then 3 uL of R*48 agonist in 20 mM Hepes was added. After incubation for 5 hours, they were allowed to stand at room temperature for 15 min. To this was added 10 uL of Steady-Glo substrate reagent and shake assay plate for 5 min at 1500 rpm. The assay plate was allowed to sit for 30 min at room temperature and then the plate was read on EnVision.

Q: For CN1CCN(CC(=O)N[C@H]2C[C@@H](C(F)(F)F)CN(c3ccc(C#N)c4nccnc34)C2)CC1 (relative stereo) [Compound 229, cis-N-[1-(8-cyanoquinoxalin-5-yl)-5-(trifluoromethyl)piperidin-3-yl]-2-(4-methylpiperazin-1-yl)acetamide], which IC50 is on record?
A: Its IC50 is < 1000 nM.

Q: For N[C@H]1C[C@@H](C2CC2)CN(c2ccc(C(F)(F)F)c3nccnc23)C1 (relative stereo) [Compound 330, cis-5-cyclopropyl-1-[8-(trifluoromethyl)quinoxalin-5-yl]piperidin-3-amine], which IC50 is on record?
A: The IC50 was < 1000 nM.

Q: With N[C@H]1C[C@@H](C2CC2)CN(c2ccc(C(F)(F)F)c3ncccc23)C1 (relative stereo) [Compound 331, cis-5-cyclopropyl-1-[8-(trifluoromethyl)quinolin-5-yl]piperidin-3-amine] as the compound, how does the IC50 read?
A: The IC50 was < 1000 nM.

Q: For N[C@H]1C[C@@H](C2CC2)CN(c2ccc(C(F)F)c3ncccc23)C1 (relative stereo) [Compound 332, cis-5-cyclopropyl-1-[8-(difluoromethyl)quinolin-5-yl]piperidin-3-amine], which IC50 is on record?
A: Its IC50 is < 1000 nM.

Q: With N[C@H]1C[C@@H](C2CC2)CN(c2ccc(F)c3ncccc23)C1 (relative stereo) [Compound 333, cis-5-cyclopropyl-1-(8-fluoroquinolin-5-yl)piperidin-3-amine] as the compound, how does the IC50 read?
A: Its IC50 is < 1000 nM.

Q: With COc1ccc(N2C[C@@H](N)C[C@@H](C3CC3)C2)c2cccnc12 (relative stereo) [Compound 334, cis-5-cyclopropyl-1-(8-methoxyquinolin-5-yl)piperidin-3-amine] as the compound, how does the IC50 read?
A: Its IC50 is < 1000 nM.

Q: Which IC50 does the source give for O=C(CN1CCOCC1)N[C@H]1C[C@@H](C2CC2)CN(c2ccc(C(F)(F)F)c3nccnc23)C1 (relative stereo) [Compound 335, cis-N-[5-cyclopropyl-1-[8-(trifluoromethyl)quinoxalin-5-yl]piperidin-3-yl]-2-(morpholin-4-yl)acetamide] here?
A: The IC50 was > 10000 nM.

Q: For O=C(CN1CCOCC1)N[C@H]1C[C@@H](C2CC2)CN(c2ccc(C(F)(F)F)c3ncccc23)C1 (relative stereo) [Compound 336, cis-N-[5-cyclopropyl-1-[8-(trifluoromethyl)quinolin-5-yl]piperidin-3-yl]-2-(morpholin-4-yl)acetamide], which IC50 is on record?
A: The IC50 was > 10000 nM.

Q: Which IC50 does the source give for CN(C(=O)CN1CCOCC1)[C@H]1C[C@@H](C2CC2)CN(c2ccc(C(F)(F)F)c3ncccc23)C1 (relative stereo) [Compound 337, cis-N-[5-cyclopropyl-1-[8-(trifluoromethyl)quinolin-5-yl]piperidin-3-yl]-N-methyl-2-(morpholin-4-yl)acetamide] here?
A: Its IC50 is > 10000 nM.

Q: With N[C@H]1C[C@@H](C2CC2)CN(c2ccc(F)c3nccnc23)C1 (relative stereo) [Compound 366, cis-5-cyclopropyl-1-(8-fluoroquinoxalin-5-yl)piperidin-3-amine] as the compound, how does the IC50 read?
A: Its IC50 is 1000 to 10000 nM.

Q: With N#Cc1ccc(N2C[C@@H](NC(=O)CC(F)(F)F)C[C@@H](C(F)(F)F)C2)c2cccnc12 (relative stereo) [Compound 428, cis-N-[1-(8-Cyano-quinolin-5-yl)-5-trifluoromethyl-piperidin-3-yl]-3,3,3-trifluoro-propionamide] as the compound, how does the IC50 read?
A: The IC50 was < 1000 nM.

Q: Which IC50 does the source give for CC(C)(C)CC(=O)N[C@H]1C[C@@H](C(F)(F)F)CN(c2ccc(C#N)c3ncccc23)C1 (relative stereo) [Compound 431, cis-N-[1-(8-Cyano-quinolin-5-yl)-5-trifluoromethyl-piperidin-3-yl]-3,3-dimethyl-butyramide] here?
A: Its IC50 is < 1000 nM.

Q: CN1CCC(CC(=O)N[C@H]2C[C@@H](C(F)(F)F)CN(c3ccc(C#N)c4ncccc34)C2)CC1 (relative stereo) [Compound 478, cis-N-[1-(8-Cyano-quinolin-5-yl)-5-trifluoromethyl-piperidin-3-yl]-2-(1-methyl-piperidin-4-yl)-acetamide] was tested. Which IC50 did it give?
A: Its IC50 is < 1000 nM.

Q: Which IC50 does the source give for N#Cc1ccc(N2C[C@@H](NC(=O)CCC(N)=O)C[C@@H](C(F)(F)F)C2)c2cccnc12 (relative stereo) [Compound 480, cis-N-[1-(8-Cyano-quinolin-5-yl)-5-trifluoromethyl-piperidin-3-yl]-succinamide] here?
A: The IC50 was 1000 to 10000 nM.

Q: Which IC50 does the source give for C[C@@H]1C[C@H](CN2CCC(N3CCOCC3)CC2)CN(c2ccc(C(F)(F)F)c3ncccc23)C1 (relative stereo) [Compound 535, cis-5-[3-Methyl-5-(4-morpholin-4-yl-piperidin-1-ylmethyl)-piperidin-1-yl]-8-trifluoromethyl-quinoline] here?
A: The IC50 was < 1000 nM.

Q: Which IC50 does the source give for C[C@@H]1C[C@@H](CN2CCC(N3CCOCC3)CC2)CN(c2ccc(C(F)(F)F)c3ncccc23)C1 (relative stereo) [Compound 536, trans-5-[3-Methyl-5-(4-morpholin-4-yl-piperidin-1-ylmethyl)-piperidin-1-yl]-8-trifluoromethyl-quinoline] here?
A: The IC50 was 1000 to 10000 nM.

Q: Which IC50 does the source give for C[C@@H]1C[C@H](C(=O)NCCN2CCN(C)CC2)CN(c2ccc(C#N)c3nccnc23)C1 (relative stereo) [Compound 537, cis-1-(8-Cyano-quinoxalin-5-yl)-5-methyl-piperidine-3-carboxylic acid [2-(4-methyl-piperazin-1-yl)-ethyl]-amide] here?
A: Its IC50 is < 1000 nM.

Q: For CNC(=O)[C@@H]1C[C@H](C)CN(c2ccc(C#N)c3nccnc23)C1 (relative stereo) [Compound 541, cis-1-(8-Cyano-quinoxalin-5-yl)-5-methyl-piperidine-3-carboxylic acid methylamide], which IC50 is on record?
A: The IC50 was 1000 to 10000 nM.

Q: CNC(=O)[C@@H]1C[C@@H](C)CN(c2ccc(C#N)c3nccnc23)C1 (relative stereo) [Compound 542, trans-1-(8-Cyano-quinoxalin-5-yl)-5-methyl-piperidine-3-carboxylic acid methylamide] was tested. Which IC50 did it give?
A: Its IC50 is 1000 to 10000 nM.

Q: How did the IC50 turn out when C[C@@H]1C[C@H](C(=O)NCC2CCN(C)CC2)CN(c2ccc(C(F)(F)F)c3ncccc23)C1 (relative stereo) [Compound 547, cis-5-Methyl-1-(8-trifluoromethyl-quinolin-5-yl)-piperidine-3-carboxylic Acid (1-methyl-piperidin-4-ylmethyl)-amide] was run?
A: The IC50 was < 1000 nM.

Q: How did the IC50 turn out when C[C@@H]1C[C@@H](C(=O)NCC2CCN(C)CC2)CN(c2ccc(C(F)(F)F)c3ncccc23)C1 (relative stereo) [Compound 548, trans-5-Methyl-1(8-trifluoromethyl-quinolin-5-yl)-piperidine-3-carboxylic acid (1-methyl-piperidin-4-ylmethyl)-amide] was run?
A: The IC50 was < 1000 nM.

Q: For N#Cc1ccc(N2CC(N)CC(C3CC3)C2)c2nccnc12 (single isomer, unassigned) [Compound 69, 8-(3-amino-5-cyclopropylpiperidin-1-yl)quinoxaline-5-carbonitrile], which IC50 is on record?
A: Its IC50 is 1000 to 10000 nM.

Q: How did the IC50 turn out when N#Cc1ccc(N2CC(N)CC(C3CC3)C2)c2nccnc12 (single isomer, unassigned) [Compound 70, 8-(3-amino-5-cyclopropylpiperidin-1-yl)quinoxaline-5-carbonitrile] was run?
A: Its IC50 is < 1000 nM.

Q: Which IC50 does the source give for N#Cc1ccc(N2CC(N)CC(C(F)(F)F)C2)c2cccnc12 (single isomer, unassigned) [Compound 72] here?
A: Its IC50 is < 1000 nM.

Q: With N#Cc1ccc(N2CC(N)CC(C(F)(F)F)C2)c2cccnc12 (single isomer, unassigned) [Compound 73] as the compound, how does the IC50 read?
A: Its IC50 is < 1000 nM.

Q: N#Cc1ccc(N2CC(N)CC(F)(F)C2)c2nccnc12 (single isomer, unassigned) [Compound 75] was tested. Which IC50 did it give?
A: Its IC50 is < 1000 nM.

Q: N#Cc1ccc(N2CC(N)CC(F)(F)C2)c2nccnc12 (single isomer, unassigned) [Compound 76] was tested. Which IC50 did it give?
A: The IC50 was 1000 to 10000 nM.

Q: With N#Cc1ccc(N2CC(N)CC(C(F)(F)F)C2)c2nccnc12 (single isomer, unassigned) [Compound 82] as the compound, how does the IC50 read?
A: The IC50 was < 1000 nM.

Q: With N#Cc1ccc(N2CC(N)CC(C(F)(F)F)C2)c2nccnc12 (single isomer, unassigned) [Compound 83] as the compound, how does the IC50 read?
A: The IC50 was < 1000 nM.

Q: For CC(C)[C@H](O)C(=O)NC1CC(C(F)(F)F)CN(c2ccc(C#N)c3nccnc23)C1 (single isomer, unassigned) [Compound 87], which IC50 is on record?
A: The IC50 was < 1000 nM.

Q: With CC(C)[C@H](O)C(=O)NC1CC(C(F)(F)F)CN(c2ccc(C#N)c3nccnc23)C1 (single isomer, unassigned) [Compound 88] as the compound, how does the IC50 read?
A: Its IC50 is < 1000 nM.
